These results are taken from ChEMBL document CHEMBL1148659, “Discovery of potent and orally active MTP inhibitors as potential anti-obesity agents” (Bioorg Med Chem Lett, 2006).

This test has as its target T1, Microsomal triglyceride transfer protein large subunit (Homo sapiens) (UniProt P55157).
T1 sequence (whole entry): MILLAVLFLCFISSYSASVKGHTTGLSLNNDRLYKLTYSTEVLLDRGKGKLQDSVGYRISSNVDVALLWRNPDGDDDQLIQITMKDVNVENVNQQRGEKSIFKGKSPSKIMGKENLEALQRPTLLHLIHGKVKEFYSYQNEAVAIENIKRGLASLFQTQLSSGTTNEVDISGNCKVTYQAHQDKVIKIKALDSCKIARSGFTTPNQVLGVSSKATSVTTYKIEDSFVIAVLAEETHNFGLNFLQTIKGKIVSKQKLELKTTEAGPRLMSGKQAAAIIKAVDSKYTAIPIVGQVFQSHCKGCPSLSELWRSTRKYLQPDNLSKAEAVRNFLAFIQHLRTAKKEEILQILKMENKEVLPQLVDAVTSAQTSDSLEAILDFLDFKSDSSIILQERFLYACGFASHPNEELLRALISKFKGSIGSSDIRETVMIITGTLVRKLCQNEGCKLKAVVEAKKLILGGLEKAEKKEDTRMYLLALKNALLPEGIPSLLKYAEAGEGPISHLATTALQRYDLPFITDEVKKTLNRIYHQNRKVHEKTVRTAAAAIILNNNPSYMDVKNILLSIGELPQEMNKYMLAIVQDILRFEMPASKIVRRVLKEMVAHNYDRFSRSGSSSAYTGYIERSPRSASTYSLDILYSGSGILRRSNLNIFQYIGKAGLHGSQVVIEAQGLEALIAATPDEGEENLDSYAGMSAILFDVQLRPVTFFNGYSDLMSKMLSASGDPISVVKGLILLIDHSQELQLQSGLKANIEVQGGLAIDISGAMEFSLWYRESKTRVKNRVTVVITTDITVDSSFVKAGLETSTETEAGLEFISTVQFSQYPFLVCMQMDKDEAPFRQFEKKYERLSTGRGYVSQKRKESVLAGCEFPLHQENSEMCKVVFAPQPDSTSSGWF
Briefly: Inhibition of intestinal MTP in rat by murine gut retention assay. The class given is functional. To be noted: target entry is the homologue from another species.

In turn, `O=C(N[C@H](C(=O)N1CCCC1)c1ccccc1)c1ccc(NC(=O)c2ccccc2-c2ccc(C(F)(F)F)cc2)nc1` returned an ED25 of 6.93 mg/kg.
Take `Cc1cc(C(=O)N[C@H](C(=O)N2CCCC2)c2ccccc2)ccc1NC(=O)c1ccccc1-c1ccc(C(F)(F)F)cc1`: the ED25 was 3 mg/kg.
